Assay results reported in patent publication US20210253651A1, “METHOD FOR PRODUCING ORGANIC COMPOUND-ENCAPSULATING FERRITIN” (Ajinomoto Co., Inc., priority 2018, published 2021).
Where a name gives a salt, the structure may show the parent alone.

Experiments:
[1] = room temperature; cited from earlier work
FTH-BC-TBP ferritin = assay: one-step incorporation of DOX into mutant ferritin FTH-BC-TBP; type: physicochemical, human; settings: pH 8, 50° C., 60 minutes, DOX 0.3 mg/L
Procedure: Total synthesis was carried out for a DNA encoding a human-derived ferritin H chain (FTH-BC-TBP) monomer in which a titanium recognizing peptide (minTBP1: RKLPDA (SEQ ID NO: 7)) was inserted for fusion at a flexible linker region between second and third α-helices counted from an N-terminus of a ferritin monomer comprising six α-helices. PCR was carried out using the synthesized DNA as a template as well as the following primers: 5′-[…]-3′ (SEQ ID NO: 8) and 5′-[…]-3′ (SEQ ID NO: 9). PCR was carried out using pET20 (Merck KGaA) as a template as well as the following primers: 5′-[…]-3′ (SEQ ID NO: 10) and 5′-[…]-3′ (SEQ ID NO: 11). […]
DOX was mixed with 1 mL of 50 mM Tris-HCl buffer (pH 8) that contains each mutate ferritin at a final concentration of 1 mg/mL, to achieve a final concentration of 0.3 mg/L, and then the resulting solutions were left to stand at 50° C. for 60 minutes. […] The concentration of contained protein was determined using the protein assay CBB solution (Nacalai Tesque, Inc.) as well as bovine albumin as a standard. The DOX concentration was determined based on analysis of the absorbance at 480 nm.

FTH ferritin = target: T1, FTH ferritin (Homo sapiens, UniProt P02794); assay: ratio of amounts incorporated, one-step vs disassembly-reassembly process; type: physicochemical
T1 construct: made in house; host or cells: Escherichia coli BL21 (DE3), plasmid pET20-FTH
T1 sequence (P02794 whole entry): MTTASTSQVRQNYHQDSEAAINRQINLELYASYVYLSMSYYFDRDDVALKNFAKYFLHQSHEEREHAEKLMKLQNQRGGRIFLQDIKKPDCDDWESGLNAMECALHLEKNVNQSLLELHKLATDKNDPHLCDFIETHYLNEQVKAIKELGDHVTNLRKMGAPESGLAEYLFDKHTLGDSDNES
Procedure: As a control, some of small molecule agents listed in Table 1 was incorporated into ferritin also at the disassembly-reassembly process. […] Then, 10 μL of 1M Tris-HCl buffer (pH 9.0) was added for neutralization, and the resulting solution was left to stand for 15 minutes at room temperature. After the standing, 0.5 mL of water was added. After the resulting solution was centrifuged (at 15,000 rpm for one minute), the supernatant was injected into the desalting column PD-10 (Sephadex G-25 filled product, GE Healthcare Inc.) equilibrated with 10 mM Tris-HCl buffer (pH 8) to separate the protein from a reagent that was not encapsulated. […]
The absorbances were measured using spectrophotometer (DU-800, Beckman Coulter Inc.) for these solutions, and the concentration of contained protein was determined using the protein assay CBB solution (Nacalai Tesque, Inc.) as well as bovine albumin as a standard. Absorbances at 280 nm and 480 nm were measured for Rhodamine B and Congo Red. […] Then, after the absorbances were calibrated based on the absorbances that were derived from the proteins and presumed by the amount of contained protein quantified using the protein assay CBB solution, the concentrations of small molecule agents were determined based on the calibration curves obtained by the absorbances of the molecules. […]

In the case of COc1cccc2c1C(=O)c1c(O)c3c(c(O)c1C2=O)C[C@@](O)(C(=O)CO)C[C@@H]3OC1CC(N)C(O)C(C)O1 (stereo partly drawn) [DOX, Doxorubicin hydrochloride], the “solubility of DOX in water” value [1] is given as ≥ 60 mg/mL, the “incorporation efficiency of the reagent” value (FTH-BC-TBP ferritin) is given as 6.5 % (wt) and the “ratio of amount incorporated at the one-step process to that at the disassembly-reassembly process” value (FTH ferritin) is given as 30 fold.
